Reference: patent US8030300B2, “Ligands for nicotinic acetylcholine receptors, and methods of making and using them” (priority 2003, dated 2011)
Read-outs that look alike come from different tables or passages of the source.

Assays:
[1] = background b17; approximate; cited from earlier work
[2] = test system: receptors in rat forebrain (mainly α4β2); test: biochemical; type: binding; settings: Table 3; ratio of the corresponding Ki values
[3] = target: T1, receptors in rat forebrain (mainly α4β2) (Rattus norvegicus, UniProt P09483+P12390); test: biochemical; type: binding; settings: Table 3, mean of 3 independent measurements
T1 construct: from tissue; host or cells: rat forebrain homogenate
T1 sequence (P09483 31-630): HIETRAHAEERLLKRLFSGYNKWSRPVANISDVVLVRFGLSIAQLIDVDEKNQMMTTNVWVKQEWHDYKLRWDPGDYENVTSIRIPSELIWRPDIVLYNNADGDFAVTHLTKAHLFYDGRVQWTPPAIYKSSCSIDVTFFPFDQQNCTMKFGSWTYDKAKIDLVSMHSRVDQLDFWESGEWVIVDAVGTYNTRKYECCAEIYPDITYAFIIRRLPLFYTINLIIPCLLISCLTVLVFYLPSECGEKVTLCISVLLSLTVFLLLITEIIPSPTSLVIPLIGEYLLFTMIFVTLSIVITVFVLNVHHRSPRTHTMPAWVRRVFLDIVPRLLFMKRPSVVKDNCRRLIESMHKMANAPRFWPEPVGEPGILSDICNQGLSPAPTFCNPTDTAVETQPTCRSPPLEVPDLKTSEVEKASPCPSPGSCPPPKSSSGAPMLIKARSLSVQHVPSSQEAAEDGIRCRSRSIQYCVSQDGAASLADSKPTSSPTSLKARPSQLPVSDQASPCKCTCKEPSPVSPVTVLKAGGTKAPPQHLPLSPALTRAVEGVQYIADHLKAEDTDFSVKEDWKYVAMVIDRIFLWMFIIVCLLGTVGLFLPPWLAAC
T1 sequence (P12390 25-500): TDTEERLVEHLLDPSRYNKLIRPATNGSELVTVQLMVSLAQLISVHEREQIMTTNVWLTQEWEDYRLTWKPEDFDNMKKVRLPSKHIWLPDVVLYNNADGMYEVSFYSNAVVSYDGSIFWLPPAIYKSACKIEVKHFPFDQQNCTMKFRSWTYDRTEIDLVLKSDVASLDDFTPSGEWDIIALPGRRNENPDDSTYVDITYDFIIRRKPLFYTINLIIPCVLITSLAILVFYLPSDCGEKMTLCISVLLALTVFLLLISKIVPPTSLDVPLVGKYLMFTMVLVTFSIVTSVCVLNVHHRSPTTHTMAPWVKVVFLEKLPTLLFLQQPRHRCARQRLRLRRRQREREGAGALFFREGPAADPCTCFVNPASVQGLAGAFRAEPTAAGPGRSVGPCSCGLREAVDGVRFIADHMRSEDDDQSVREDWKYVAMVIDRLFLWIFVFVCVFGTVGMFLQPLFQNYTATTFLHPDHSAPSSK

α2β4 nAChR subtype = target: T2, α2β4 nAChR subtype (Rattus norvegicus, UniProt P12389+P12392); test: biochemical; type: binding; settings: mean of 3 independent measurements
T2 construct: expressed in transfected cells
T2 sequence (P12389 28-511): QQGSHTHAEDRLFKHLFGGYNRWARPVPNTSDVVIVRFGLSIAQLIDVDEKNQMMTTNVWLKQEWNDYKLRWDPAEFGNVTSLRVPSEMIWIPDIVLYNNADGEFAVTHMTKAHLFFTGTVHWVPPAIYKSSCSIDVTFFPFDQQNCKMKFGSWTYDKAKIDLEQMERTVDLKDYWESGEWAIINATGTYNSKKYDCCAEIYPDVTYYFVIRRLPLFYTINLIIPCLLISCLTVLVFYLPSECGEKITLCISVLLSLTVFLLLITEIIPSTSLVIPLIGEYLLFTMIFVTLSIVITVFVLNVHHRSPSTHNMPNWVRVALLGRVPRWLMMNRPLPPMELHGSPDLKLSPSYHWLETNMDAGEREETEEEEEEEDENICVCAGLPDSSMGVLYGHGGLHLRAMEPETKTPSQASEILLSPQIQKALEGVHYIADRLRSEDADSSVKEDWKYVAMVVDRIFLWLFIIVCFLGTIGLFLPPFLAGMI
T2 sequence (P12392 21-495): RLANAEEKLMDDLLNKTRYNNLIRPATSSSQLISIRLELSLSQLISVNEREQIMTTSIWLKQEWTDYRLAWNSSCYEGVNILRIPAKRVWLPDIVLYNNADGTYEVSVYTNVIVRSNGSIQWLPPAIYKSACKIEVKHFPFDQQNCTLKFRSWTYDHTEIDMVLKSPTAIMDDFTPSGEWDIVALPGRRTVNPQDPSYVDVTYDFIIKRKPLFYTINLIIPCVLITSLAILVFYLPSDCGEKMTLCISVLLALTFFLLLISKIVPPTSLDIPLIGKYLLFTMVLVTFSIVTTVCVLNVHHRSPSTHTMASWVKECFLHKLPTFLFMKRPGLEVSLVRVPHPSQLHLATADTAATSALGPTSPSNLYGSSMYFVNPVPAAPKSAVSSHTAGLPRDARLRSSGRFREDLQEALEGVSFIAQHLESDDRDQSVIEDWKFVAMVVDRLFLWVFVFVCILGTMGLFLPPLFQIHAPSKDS
Text: (§1) In order to assess the steric and hydropathic effects of the C-5 substituents of the pyridine on the binding affinity and subtype-selectivity at neuronal nicotinic acetylcholine receptors. […] The binding affinity ratios for a ligand, calculated from its affinities at an α subunit paired with either the β2 osubunit or the β4 subunit, represents a measure of the selectivity of that ligand with regard to the β subunits.

α2β2 nAChR subtype = target: T3, α2β2 nAChR subtype (Rattus norvegicus, UniProt P12389+P12390); test: biochemical; type: binding; settings: mean of 3 independent measurements
T3 construct: expressed in transfected cells
T3 sequence (P12390 25-500): as the sequence (P12390 25-500) above
T3 sequence (P12389 28-511): as the sequence (P12389 28-511) above
Text: as §1

α4β4 nAChR subtype = target: T4, α4β4 nAChR subtype (Rattus norvegicus, UniProt P09483+P12392); test: biochemical; type: binding; settings: mean of 3 independent measurements
T4 construct: expressed in transfected cells
T4 sequence (P12392 21-495): as the sequence (P12392 21-495) above
T4 sequence (P09483 31-630): as the sequence (P09483 31-630) above
Text: as §1

α3β2 nAChR subtype = target: T5, α3β2 nAChR subtype (Rattus norvegicus, UniProt P04757+P12390); test: biochemical; type: binding; settings: mean of 3 independent measurements
T5 construct: expressed in transfected cells
T5 sequence (P12390 25-500): as the sequence (P12390 25-500) above
T5 sequence (P04757 26-499): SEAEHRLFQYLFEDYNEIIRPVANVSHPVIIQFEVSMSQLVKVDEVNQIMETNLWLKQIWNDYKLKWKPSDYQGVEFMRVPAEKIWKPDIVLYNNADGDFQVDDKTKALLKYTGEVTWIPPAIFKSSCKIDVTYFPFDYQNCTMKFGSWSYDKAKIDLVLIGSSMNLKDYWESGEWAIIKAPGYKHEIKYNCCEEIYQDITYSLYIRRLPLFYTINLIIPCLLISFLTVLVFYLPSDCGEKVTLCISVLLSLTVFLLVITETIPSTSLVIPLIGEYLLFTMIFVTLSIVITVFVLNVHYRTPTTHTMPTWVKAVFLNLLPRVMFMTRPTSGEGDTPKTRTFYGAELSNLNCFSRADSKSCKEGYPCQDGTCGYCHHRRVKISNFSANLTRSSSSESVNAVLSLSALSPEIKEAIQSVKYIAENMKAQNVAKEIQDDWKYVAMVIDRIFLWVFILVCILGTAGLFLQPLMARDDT
Text: as §1

α4β2 nAChR subtype = target: T6, α4β2 nAChR subtype (Rattus norvegicus, UniProt P09483+P12390); test: biochemical; type: binding; settings: for Ki: mean of 3 independent measurements
T6 construct: expressed in transfected cells
T6 sequence (P12390 25-500): as the sequence (P12390 25-500) above
T6 sequence (P09483 31-630): as the sequence (P09483 31-630) above
Text: as §1

α3β4 nAChR subtype = target: T7, α3β4 nAChR subtype (Rattus norvegicus, UniProt P04757+P12392); test: biochemical; type: binding; settings: mean of 3 independent measurements
T7 construct: expressed in transfected cells
T7 sequence (P04757 26-499): as the sequence (P04757 26-499) above
T7 sequence (P12392 21-495): as the sequence (P12392 21-495) above
Text: as §1

Row | Compound | analgesic potency, times that of morphine [1] | Affinity ratio (α3β4/Forbrain) [2] | Ki ([3]; read-out: Ki Forebrain) | Ki (α2β4 nAChR subtype; Table 3, read-out: Ki α2β4) | Ki (α2β2 nAChR subtype; Table 3, read-out: Ki α2β2) | Ki (α4β4 nAChR subtype; Table 3, read-out: Ki α4β4) | Ki (α3β2 nAChR subtype; Table 3, read-out: Ki α3β2) | affinities for α4β2 nAChR subtype (in words) (α4β2 nAChR subtype) | Ki (α4β2 nAChR subtype; Table 3, read-out: Ki α4β2) | Ki (α3β4 nAChR subtype; Table 3, read-out: Ki α3β4) | Ki ([3]; Ki Forebrain) | Ki (α2β4 nAChR subtype; Ki α2β4, Table 3) | Ki (α2β2 nAChR subtype; Ki α2β2, Table 3) | Ki (α4β4 nAChR subtype; Ki α4β4, Table 3) | Ki (α3β2 nAChR subtype; Ki α3β2, Table 3) | Ki (α4β2 nAChR subtype; Ki α4β2, Table 3) | folds lower binding affinities than epibatidine at the nAChRs (α4β2 nAChR subtype; text b208) | subtype selectivity among the neuronal nAChRs (α4β2 nAChR subtype; text b208) | Ki (α3β4 nAChR subtype; Ki α3β4, Table 3) | more selective for α4β2 over α3β4 than the corresponding parent compounds 7, 8, and 2 (α4β2 nAChR subtype; text b210)
1 | Clc1ccc(C2CC3CCC2N3)cn1 (racemic) [Epibatidine, 2-exo-(2-Chloro-5-pyridyl)-7-azabicyclo[2.2.1]heptane] | ~500 times |  |  |  |  |  |  |  |  |  |  |  |  |  |  |  |  |  |  | 
2 | FCCCCC#Cc1cncc(OC[C@@H]2CCCN2)c1 [Ligand 42] |  | 2,197 | 3.45 nM | 680 nM | 3.5 nM | 721 nM | 5.27 nM | subnanomolar | 0.907 nM | 7580 nM |  |  |  |  |  |  |  |  |  | 
3 | OCCCCC#Cc1ccc(C2CC3CCC2N3)cn1 (centres unmarked) [Ligand 34] |  | 2 |  |  |  |  |  |  |  |  | 52 nM | 67.4 nM | 16.9 nM | 61.8 nM | 19.8 nM | 67.7 nM | 200-1000 folds | less than 6 fold | 95.4 nM | 
4 | OCCCCC#Cc1cncc(OC[C@@H]2CCCN2)c1 [Ligand 27] |  | 14,000 | 1.15 nM | 835 nM | 1.51 nM | 778 nM | 2.69 nM |  | 0.665 nM | 16100 nM |  |  |  |  |  |  |  |  |  | 2 orders of magnitude
